The source of these data is patent US20260325685A1, “Radiopharmaceutical Compositions Targeting Carbonic Anhydrase IX and Uses Thereof” (RayzeBio, Inc., priority 2023, published 2026).

One assay addresses T1, human CA-IX (Homo sapiens, UniProt Q16790).
T1 construct: purchased Acro CA9-H82E3
As to the kind of experiment: Surface Plasmon Resonance (SPR) binding kinetics to recombinant human CA-IX (Biacore 8K, single-cycle kinetics, 1:1 binding model). A digest of the protocol: (§1)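 Proteins were captured on streptavidin chips at 1200-1800 RU (CA-IX 180 s, CA-XII 75 s injection). Compound was run at 9 concentrations (100-0.39 nM) in PBS-P+ pH 7.4 with 1% DMSO, 120 s association, 1200 s dissociation, 25° C. Rate constants came from reference- and DMSO-corrected curves.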
On the technique in general: In SPR one partner is held on a chip, and binding of the other changes the refractive index at the surface.

Another assay deals with T2, human CA-XII (Homo sapiens, UniProt O43570).
T2 construct: purchased Creative BioMart CA12-261H
As to the kind of experiment: Surface Plasmon Resonance (SPR) binding kinetics to recombinant human CA-XII (Biacore 8K, single-cycle kinetics, 1:1 binding model). In outline:
as §1

Where [1] appears, read: Chelated Metal: Lu-175; SPR, 25° C., pH 7.4; read-out: CAIX KD.
Where [2] appears, read: Chelated Metal: Lu-175, 25° C., pH 7.4, read-out: CAXII KD.

Like-named read-outs stand apart in the source and are kept apart here.

T2 sequence (O43570 25-354): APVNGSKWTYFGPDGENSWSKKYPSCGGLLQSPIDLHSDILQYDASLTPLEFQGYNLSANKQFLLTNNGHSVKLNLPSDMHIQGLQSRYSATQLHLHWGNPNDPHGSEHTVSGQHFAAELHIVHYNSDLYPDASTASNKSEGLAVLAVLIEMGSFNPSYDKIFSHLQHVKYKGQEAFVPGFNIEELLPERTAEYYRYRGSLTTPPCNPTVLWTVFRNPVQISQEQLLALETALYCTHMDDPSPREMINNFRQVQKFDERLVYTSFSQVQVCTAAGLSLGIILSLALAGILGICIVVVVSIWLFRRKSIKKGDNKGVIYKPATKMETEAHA

With `CC(CCCC(=O)N1CCC(C(N)=O)(C(=O)NCC(=O)N2CCN(C(=O)CCOCCOCCNC(=O)CN3CCN(CC(=O)O)CCN(CC(=O)O)CCN(CC(=O)O)CC3)C[C@@H]2C(=O)NCCn2cc(C34CC(C(=O)Nc5nnc(S(N)(=O)=O)s5)(C3)C4)nn2)CC1)(c1ccc(O)cc1)c1ccc(O)cc1.[Lu+3]` [Compound 129.2], the Kd (usually the concentration at which binding is half-saturated) on human CA-IX (setting [1]) was under 1 nM; on human CA-XII (setting [2]), over 10 nM.
As for `CC(CCC(=O)N[C@@H](CC(=O)N[C@@H](CC(=O)N1CCN(C(=O)CN2CCN(CC(=O)O)CCN(CC(=O)O)CCN(CC(=O)O)CC2)CC1CCCCn1cc(CCCC(=O)Nc2nnc(S(N)(=O)=O)s2)nn1)C(=O)O)C(=O)O)(c1ccc(O)cc1)c1ccc(O)cc1.[Lu+3]` (stereo partly shown) [Compound 104], the Kd was in the range of 1 to 2.5 nM at human CA-IX (read-out: CAIX KD; Chelated Metal: Lu-175; SPR, 25° C., pH 7.4) and 2.5 to 10 nM on human CA-XII (read-out: CAXII KD, Chelated Metal: Lu-175, 25° C., pH 7.4).
On to `NS(=O)(=O)c1nnc(NC(=O)C23CC(c4cn(CCNC(=O)[C@@H]5CN(C(=O)CN6CCN(CC(=O)O)CCN(CC(=O)O)CCN(CC(=O)O)CC6)CCN5C(=O)C[C@H](NC(=O)C[C@H](NC(=O)Cc5ccc(S(F)(F)(F)(F)F)cc5)C(=O)O)C(=O)O)nn4)(C2)C3)s1.[Lu+3]` [Compound 109.20], for which the Kd was under 1 nM on human CA-IX (setting [1]) and 2.5 to 10 nM at human CA-XII (setting [2]).
Regarding `CC[C@H]1CN(CC(=O)O)[C@@H](CC)CN(CC(=O)N2CCN(C(=O)CNC(=O)C3(C(N)=O)CCN(C(=O)CCCC(C)(c4ccc(O)cc4)c4ccc(O)cc4)CC3)[C@H](C(=O)NCCn3cc(C45CC(C(=O)Nc6nnc(S(N)(=O)=O)s6)(C4)C5)nn3)C2)[C@@H](CC)CN(CC(=O)O)[C@@H](CC)CN1CC(=O)O.[Lu+3]` [Compound 128.1], the Kd is under 1 nM on human CA-IX (setting [1]) and over 10 nM on human CA-XII (setting [2]).
Regarding `CC(CCC(=O)N[C@@H](CC(=O)N[C@@H](CC(=O)N[C@@H](CCCCn1cc(C23CCC(C(=O)Nc4nnc(S(N)(=O)=O)s4)(CC2)C3)nn1)C(=O)NCC1(C(=O)O)CCN(C(=O)CN2CCN(CC(=O)O)CCN(CC(=O)O)CCN(CC(=O)O)CC2)CC1)C(=O)O)C(=O)O)(c1ccc(O)cc1)c1ccc(O)cc1.[Lu+3]` [Compound 100.18], the Kd at human CA-IX (setting [1]) and on human CA-XII (setting [2]) was under 1 nM each time.
As for `CC(CCCC(=O)N1CCC(C(=O)O)(C(=O)NCC(=O)N[C@@H](CCCCn2cc(C34CC(C(=O)Nc5nnc(S(N)(=O)=O)s5)(C3)C4)nn2)C(=O)NCCOCCOCCNC(=O)CN2CCN(CC(=O)O)CCN(CC(=O)O)CCN(CC(=O)O)CC2)CC1)(c1ccc(O)cc1)c1ccc(O)cc1.[Lu+3]` [Compound 102.6], the Kd on human CA-IX (setting [1]) was under 1 nM; at human CA-XII (setting [2]), over 10 nM.
Take `CC(CCCC(=O)N1CCC(C(N)=O)(C(=O)NCC(=O)N2CCN(C(=O)CN3CCN(CC(=O)O)CCN(CC(=O)O)CCN(CC(=O)O)CC3)C[C@H]2C(=O)NCCn2cc(C34CC(c5cn6nc(S(N)(=O)=O)sc6n5)(C3)C4)nn2)CC1)(c1ccc(O)cc1)c1ccc(O)cc1` [Compound 107.53]: the Kd is under 1 nM on human CA-IX (Chelated Metal: None; SPR, 25° C., pH 7.4; read-out: CAIX KD) and 2.5 to 10 nM at human CA-XII (Chelated Metal: None, 25° C., pH 7.4, read-out: CAXII KD). Also, at human CA-IX (KD ratio CAXII/CAIX; Chelated Metal: None), the “Ratio (CAXII/CAIX)” value was “**** (50 < ****)”.
On to `NS(=O)(=O)c1nnc(NC(=O)C23CC(c4cn(CCNC(=O)[C@@H]5CN(C(=O)CN6CCN(CC(=O)O)CCN(CC(=O)O)CCN(CC(=O)O)CC6)CCN5C(=O)CNC(=O)C5(C(=O)O)CCN(C(=O)Cc6n[nH]c7ccc(F)cc67)CC5)nn4)(C2)C3)s1.[Lu+3]` [Compound 112.15], for which the Kd at human CA-IX (setting [1]) was 1 to 2.5 nM; on human CA-XII (setting [2]), over 10 nM.
Take `CC(CCCC(=O)N1CCC(C(N)=O)(C(=O)NCC(=O)N2CCN(C(=O)CN3CCN(CC(=O)O)CCN(CC(=O)O)CCN(CC(=O)O)CC3)C[C@H]2C(=O)NCCn2cc(COc3ccc4nc(S(N)(=O)=O)sc4c3)nn2)CC1)(c1ccc(O)cc1)c1ccc(O)cc1.[Lu+3]` [Compound 107.49]: the results for the Kd on human CA-IX (setting [1]) and at human CA-XII (setting [2]) were under 1 nM and over 10 nM, respectively.
With `NS(=O)(=O)c1nnc(NC(=O)C23CC(c4cn(CCNC(=O)[C@@H]5CN(C(=O)CN6CCN(CC(=O)O)CCN(CC(=O)O)CCN(CC(=O)O)CC6)CCN5C(=O)C[C@H](NC(=O)C[C@H](NCc5ccc(C6CC6)cc5)C(=O)O)C(=O)O)nn4)(C2)C3)s1.[Lu+3]` [Compound 109.21], the Kd at human CA-IX (setting [1]) is under 1 nM; on human CA-XII (setting [2]) it was over 10 nM.
For `NS(=O)(=O)c1nnc(NC(=O)C23CC(c4cn(CCNC(=O)[C@H]5CNCCN5C(=O)[C@H](CCCCNC(=O)CN5CCN(CC(=O)O)CCN(CC(=O)O)CCN(CC(=O)O)CC5)NC(=O)CC[C@H](NC(=O)c5n[nH]c6ccccc56)C(=O)O)nn4)(C2)C3)s1.[Lu+3]` [Compound 118.3] the same measures were 2.5 to 10 nM and 2.5 to 10 nM.
For `CC(CCCC(=O)N1CCOC[C@H]1C(=O)N[C@@H](CC(=O)N1CCN(C(=O)CCOCCOCCOCCOCCN(CCOCCOCCOCCOCCC(=O)N2CCN(C(=O)C[C@H](NC(=O)[C@@H]3COCCN3C(=O)CCCC(C)(c3ccc(O)cc3)c3ccc(O)cc3)C(N)=O)[C@@H](C(=O)NCCn3cc(C45CC(C(=O)Nc6nnc(S(N)(=O)=O)s6)(C4)C5)nn3)C2)C(=O)CNC(=O)CN2CCN(CC(=O)O)CCN(CC(=O)O)CCN(CC(=O)O)CC2)C[C@@H]1C(=O)NCCn1cc(C23CC(C(=O)Nc4nnc(S(N)(=O)=O)s4)(C2)C3)nn1)C(N)=O)(c1ccc(O)cc1)c1ccc(O)cc1.[Lu+3]` [Compound 131.6] the same measures were under 1 nM and 1 to 2.5 nM.
Take `NS(=O)(=O)c1nnc(NC(=O)C23CC(c4cn(CCNC(=O)[C@H]5CN(C(=O)CN6CCN(CC(=O)O)CCN(CC(=O)O)CCN(CC(=O)O)CC6)CCN5C(=O)CC[C@H](NC(=O)Cc5n[nH]c6ccccc56)C(=O)O)nn4)(C2)C3)s1.[Lu+3]` [Compound 107.16]: the Kd at human CA-IX (setting [1]) was in the range of 1 to 2.5 nM; at human CA-XII (setting [2]), 2.5 to 10 nM.
For `CC(CCC(=O)N[C@@H](CC(=O)N[C@@H](CC(=O)N[C@@H](CCCn1cc(C23CCC(C(=O)Nc4nnc(S(N)(=O)=O)s4)(CC2)CC3)nn1)C(=O)NCCOCCOCCNC(=O)CN1CCN(CC(=O)O)CCN(CC(=O)O)CCN(CC(=O)O)CC1)C(=O)O)C(=O)O)(c1ccc(O)cc1)c1ccc(O)cc1.[Lu+3]` [Compound 100.7], the results for the dissociation constant Kd at human CA-IX (setting [1]) and at human CA-XII (setting [2]) were under 1 nM and 1 to 2.5 nM, respectively.
For `NS(=O)(=O)c1nnc(NC(=O)C23CC(c4cn(CCNC(=O)[C@@H]5CN(C(=O)CN6CCN(CC(=O)O)CCN(CC(=O)O)CCN(CC(=O)O)CC6)CCN5C(=O)CNC(=O)C5(C(=O)O)CCN(C(=O)CCCc6n[nH]c7ccccc67)CC5)nn4)(C2)C3)s1.[Lu+3]` [Compound 112.5] the same measures were 2.5 to 10 nM and over 10 nM.
As for `NS(=O)(=O)c1nnc(NC(=O)C23CCC(c4cn(CCNC(=O)[C@@H]5CN(C(=O)CN6CCN(CC(=O)O)CCN(CC(=O)O)CCN(CC(=O)O)CC6)CCN5C(=O)CNC(=O)C5(C(=O)O)CCN(C(=O)CCCc6ccc(I)cc6)CC5)nn4)(CC2)CC3)s1.[Lu+3]` [Compound 112.2], the Kd at human CA-IX (setting [1]) was under 1 nM; on human CA-XII (setting [2]), 2.5 to 10 nM.
Take `NS(=O)(=O)c1nnc(NC(=O)C23CC(c4cn(CCNC(=O)[C@@H]5CN(C(=O)CN6CCN(CC(=O)O)CCN(CC(=O)O)CCN(CC(=O)O)CC6)CCN5C(=O)C[C@H](NC(=O)C[C@H](NC(=O)c5n[nH]nc5C(F)(F)F)C(=O)O)C(=O)O)nn4)(C2)C3)s1.[Lu+3]` [Compound 109.28]: the Kd at human CA-IX (setting [1]) is under 1 nM; at human CA-XII (setting [2]) it was 1 to 2.5 nM.
Consider `CC(CCCC(=O)N1CCC(C(N)=O)(C(=O)NCC(=O)NC2(C(=O)NCCn3cc(C45CC(c6cn7nc(S(N)(=O)=O)sc7n6)(C4)C5)nn3)CCN(C(=O)CC[C@H](C(=O)O)N3CCN(CC(=O)O)CCN(CC(=O)O)CCN(CC(=O)O)CC3)CC2)CC1)(c1ccc(O)cc1)c1ccc(O)cc1.[Lu+3]` [Compound 127.5], for which the values for the Kd on human CA-IX (setting [1]) and at human CA-XII (setting [2]) were under 1 nM and 2.5 to 10 nM, respectively.
